Reference: ChEMBL document CHEMBL4118111, “Discovery and optimization of piperazine-1-thiourea-based human phosphoglycerate dehydrogenase inhibitors” (Bioorg Med Chem, 2018)

How the values were obtained:
[1] = biological target: T1, D-3-phosphoglycerate dehydrogenase (Homo sapiens) (UniProt O43175); experiment: Inhibition of N-terminal His6-tagged human liver PHGDH expressed in Escherichia coli Rosetta (DE3)pLysS at 57 uM using 3-phosphoglycerate as substrate after 20 mins in presence of NAD+ by resazurin fluorescence based PSAT1/diaphorase/PSPH coupled enzyme assay
T1 sequence (whole entry): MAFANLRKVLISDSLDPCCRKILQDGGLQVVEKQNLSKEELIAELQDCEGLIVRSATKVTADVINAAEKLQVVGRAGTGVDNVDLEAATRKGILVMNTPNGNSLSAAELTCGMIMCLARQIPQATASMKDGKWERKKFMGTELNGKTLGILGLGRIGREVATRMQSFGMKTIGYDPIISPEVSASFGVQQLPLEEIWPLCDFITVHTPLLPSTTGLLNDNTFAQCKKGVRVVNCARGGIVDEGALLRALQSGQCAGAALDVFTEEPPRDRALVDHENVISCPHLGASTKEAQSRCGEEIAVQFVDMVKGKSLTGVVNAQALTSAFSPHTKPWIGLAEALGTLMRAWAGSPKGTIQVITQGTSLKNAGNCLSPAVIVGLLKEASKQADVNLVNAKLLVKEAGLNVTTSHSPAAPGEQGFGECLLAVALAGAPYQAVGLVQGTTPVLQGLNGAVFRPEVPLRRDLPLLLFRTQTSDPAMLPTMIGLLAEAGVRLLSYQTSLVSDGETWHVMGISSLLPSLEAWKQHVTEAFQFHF

[2] = biological target: T2, D-3-phosphoglycerate dehydrogenase (Homo sapiens, UniProt O43175)
T2 sequence (O43175 whole entry): T1 sequence (whole entry)

[3] = Aqueous solubility of the compound; format: physicochemical
[4] = biological target: T2, D-3-phosphoglycerate dehydrogenase; experiment: Inhibition of PHGDH (unknown origin)
[5] = Half life in rat liver microsomes at 1 uM at 37 degC in presence of NADPH regeneration system incubated for 15 mins by LC-MS/MS analysis; format: ADME, microsome

Work on Cc1cc(C)nc(NC(=S)N2CCN(c3cccnc3)CC2)c1 yielded an inhibition [1] of 68% and an IC50 [2] of 50 µM.

With Cc1cc(C)nc(NC(=S)N2CCN(Cc3ccc(C(F)(F)F)cc3)C(c3ccccc3)C2)c1 (configuration not stated) the inhibition [1] was 111% and the IC50 [2] was 31 µM.

With Cc1cc(C)nc(NC(=S)N2CCN(Cc3ccc(F)cc3)CC2)c1 the inhibition [1] was 86% and the IC50 [2] was 38 µM.

Molecule Cc1cc(C)nc(NC(=S)N2CCC(Nc3ccc(C(F)(F)F)cc3)CC2)c1 has an inhibition [1] of 97% and an IC50 [2] of 7.7 µM.

In the case of Cc1cc(C)nc(NC(=S)N2CCN(C(=O)c3cccc(C(F)(F)F)c3)CC2)c1, the inhibition [1] is reported as 101% and the IC50 [2] is reported as 22 µM.

In the case of Cc1ccc(CN2CCN(C(=S)Nc3cc(C)cc(C)n3)CC2)cc1, the inhibition [1] is reported as 93% and the IC50 [2] is reported as 17 µM.

Molecule FC(F)(F)c1cccc(N2CCN(C(=S)Nc3cccnc3)CC2)c1 has an inhibition [1] of 67% and an IC50 [2] of 8.9 µM.

With FC(F)(F)c1cccc(N2CCN(C(=S)Nc3ccncc3)CC2)c1 the inhibition [1] was 55% and the IC50 [2] was 14 µM.

For Cc1cc(C)nc(NC(=S)N2CCN(Cc3cccc(C(F)(F)F)c3)CC2)c1, the inhibition [1] was 102% and the IC50 [2] was 5.3 µM.

COc1ccc(CN2CCN(C(=S)Nc3cc(C)cc(C)n3)CC2)cc1 gave an inhibition [1] of 87% and an IC50 [2] of 26 µM.

Molecule Cc1cc(C)nc(NC(=S)N2CCN(Cc3ccc(OC(F)(F)F)cc3)CC2)c1 has an inhibition [1] of 96% and an IC50 [2] of 11 µM.

With Cc1cc(C)nc(NC(=S)N2CCN(c3ccncc3)CC2)c1 the Imax [1] was 33% and the solubility [3] was > 48 µM.

With Cc1cc(C)nc(NC(=S)N2CCN(C(=O)c3ccc(C(F)(F)F)cc3)CC2)c1 the inhibition [1] was 85% and the IC50 [2] was 19 µM.

For Cc1cc(C)nc(NC(=S)N2CCN(Cc3ccc(C(F)(F)F)cc3)[C@H](C)C2)c1, the inhibition [1] was 94% and the IC50 [2] was 12 µM.

Work on Cc1cc(C)nc(NC(=S)N2CCN(CCc3ccc(C(F)(F)F)cc3)CC2)c1 yielded an inhibition [1] of 87% and an IC50 [2] of 23 µM.

For CCNC(=S)N/N=C/c1ccc(-c2ccc(C(=O)O)c(Cl)c2)o1, the IC50 [4] was 35.7 µM.

Cc1ccnc(CC(=S)N2CCN(c3cccc(C(F)(F)F)c3)CC2)c1 showed an Imax [1] of 37%.

COc1ccc(N2CCN(C(=S)Nc3cc(C)cc(C)n3)CC2)cc1 gave an inhibition [1] of 99% and an IC50 [2] of 16 µM.

Work on Cc1cc(C)nc(NC(=S)N2CCCN(Cc3ccc(C(F)(F)F)cc3)CC2)c1 yielded an inhibition [1] of 82% and an IC50 [2] of 7.3 µM.

Cc1cc(C)nc(NC(=S)N2CCN(Cc3ccccc3F)CC2)c1 showed an inhibition [1] of 56% and an IC50 [2] of 41 µM.

Cc1cc(C)nc(NC(=S)N2CC3CN(Cc4ccc(C(F)(F)F)cc4)CC3C2)c1 (configuration not stated) showed an inhibition [1] of 93% and an IC50 [2] of 16 µM.

With Cc1cc(C)nc(NC(=S)N2CCN(c3cccc(C(F)(F)F)n3)CC2)c1 the inhibition [1] was 100% and the IC50 [2] was 11 µM.

Cc1cccc(CN2CCN(C(=S)Nc3cc(C)cc(C)n3)CC2)c1 showed an inhibition [1] of 92% and an IC50 [2] of 20 µM.

Work on FC(F)(F)c1cccc(N2CCN(C(=S)Nc3cc(C(F)(F)F)ccn3)CC2)c1 yielded an inhibition [1] of 61% and an IC50 [2] of 6.4 µM.

Cc1cc(C)nc(NC(=S)N2CCN(Cc3ccc(Cl)cc3)CC2)c1 showed an inhibition [1] of 97% and an IC50 [2] of 15 µM.

Cc1cc(C)nc(NC(=S)N2CCN(Cc3cccnc3)CC2)c1 showed an Imax [1] of 34%.

With FC(F)(F)c1cccc(N2CCN(C(=S)Nc3ccccn3)CC2)c1 the inhibition [1] was 93%, the t1/2 [5] was 16 min and the IC50 [2] was 6.8 µM.

For Cc1cc(C)nc(NC(=S)N2CCN(c3ccccc3C(F)(F)F)CC2)c1, the inhibition [1] was 101% and the IC50 [2] was 8.7 µM.

Work on Cc1cc(C)nc(NC(=S)N2C[C@@H](C)N(Cc3ccc(C(F)(F)F)cc3)[C@@H](C)C2)c1 yielded an Imax [1] of 16%.

Cc1cc(C)nc(NC(=S)N2CCCC(NC(=O)c3ccc(C(F)(F)F)cc3)C2)c1 (configuration not stated) gave an inhibition [1] of 88% and an IC50 [2] of 8.7 µM.

For Cc1ccnc(NC(=O)N2CCN(c3cccc(C(F)(F)F)c3)CC2)c1, the Imax [1] was 16%.

Work on COc1ccccc1CN1CCN(C(=S)Nc2cc(C)cc(C)n2)CC1 yielded an Imax [1] of 21%.

With COc1cccc(CN2CCN(C(=S)Nc3cc(C)cc(C)n3)CC2)c1 the inhibition [1] was 94% and the IC50 [2] was 30 µM.

Molecule Cc1ccnc(NC(=S)N2CCN(c3cccc(C(F)(F)F)c3)CC2)c1 has an inhibition [1] of 92%.

Cc1cc(C)nc(NC(=S)N2CCN(c3ccccn3)CC2)c1 gave an inhibition [1] of 73% and an IC50 [2] of 37 µM.

Molecule Cc1cc(C)nc(NC(=S)NCCN(C)Cc2ccc(C(F)(F)F)cc2)c1 has an inhibition [1] of 66% and an IC50 [2] of 21 µM.

Work on Cc1cc(C)nc(NC(=S)N2CCC(NCc3ccc(C(F)(F)F)cc3)CC2)c1 yielded an inhibition [1] of 93% and an IC50 [2] of 15 µM.

Cc1cc(C)nc(NC(=S)N2CCN(Cc3ccccc3C)CC2)c1 showed an inhibition [1] of 85% and an IC50 [2] of 9.2 µM.

Cc1cc(C)nc(NC(=S)N2CCC(Nc3cccc(C(F)(F)F)c3)CC2)c1 showed an inhibition [1] of 90% and an IC50 [2] of 6.5 µM.

Molecule Cc1cc(C)nc(NC(=S)N2CCN(Cc3ccccc3Cl)CC2)c1 has an inhibition [1] of 106% and an IC50 [2] of 20 µM.

In the case of Cc1cc(C)nc(NC(=S)N2CCN(Cc3ccc(Br)cc3)CC2)c1, the inhibition [1] is reported as 92% and the IC50 [2] is reported as 17 µM.

With FC(F)(F)c1cccc(N2CCN(C(=S)Nc3ccc4ccccc4n3)CC2)c1 the inhibition [1] was 90% and the IC50 [2] was 10 µM.

Cc1cc(C)nc(NC(=S)N2CCN(Cc3cccc(Cl)c3)CC2)c1 showed an inhibition [1] of 90% and an IC50 [2] of 11 µM.

COC(=O)c1ccnc(NC(=S)N2CCN(c3cccc(C(F)(F)F)c3)CC2)c1 gave an inhibition [1] of 73% and an IC50 [2] of 13 µM.

With COc1cccc(N2CCN(C(=S)Nc3cc(C)cc(C)n3)CC2)c1 the inhibition [1] was 101% and the IC50 [2] was 14 µM.

Work on Cc1cc(C)nc(NC(=S)N2CCCC(NCc3ccc(C(F)(F)F)cc3)C2)c1 (configuration not stated) yielded an inhibition [1] of 89% and an IC50 [2] of 12 µM.

In the case of Cc1cccc(NC(=S)N2CCN(c3cccc(C(F)(F)F)c3)CC2)c1, the Imax [1] is reported as 20%.

Work on Cc1cc(C)nc(NC(=S)N2CCN(Cc3ccccc3)CC2)c1 yielded an inhibition [1] of 78% and an IC50 [2] of 40 µM.

Cc1cc(C)nc(NC(=S)N2CCN(Cc3ccccn3)CC2)c1 showed an inhibition [1] of 51% and an IC50 [2] of 50 µM.

Cc1cc(C)nc(NC(=S)NCCNCc2ccc(C(F)(F)F)cc2)c1 gave an inhibition [1] of 41% and an IC50 [2] of 9.7 µM.

In the case of Cc1cc(C)nc(NC(=S)N2CCN(Cc3ccc(C(F)(F)F)cc3)C(C)C2)c1 (configuration not stated), the inhibition [1] is reported as 99% and the IC50 [2] is reported as 8.3 µM.

Work on Cc1cc(C)nc(NC(=S)N(C)CCN(C)Cc2ccc(C(F)(F)F)cc2)c1 yielded an inhibition [1] of 84% and an IC50 [2] of 7.3 µM.

In the case of Cc1cc(C)nc(NC(=S)N2CCN(Cc3ccncc3)CC2)c1, the inhibition [1] is reported as 67% and the IC50 [2] is reported as 59 µM.

In the case of Cc1cc(C)nc(NC(=S)N2CCN(Cc3ccc(C(F)(F)F)cc3)CC2)c1, the inhibition [1] is reported as 96%.

Molecule Cc1cc(C)nc(NC(=S)N2CCCC(Nc3cccc(C(F)(F)F)c3)C2)c1 (configuration not stated) has an inhibition [1] of 84% and an IC50 [2] of 7.2 µM.

With Cc1cc(C)nc(NC(=S)N2CCN(c3ccc(C(F)(F)F)cn3)CC2)c1 the inhibition [1] was 96%.

For Cc1cc(C)nc(NC(=S)N2CCN(Cc3ccc(C(F)(F)F)cc3)C(C(=O)O)C2)c1 (configuration not stated), the inhibition [1] was 93% and the IC50 [2] was 33 µM.

Work on Cc1cc(C)nc(NC(=S)N2CCN(Cc3cccc(F)c3)CC2)c1 yielded an inhibition [1] of 88% and an IC50 [2] of 39 µM.

With Cc1cc(NC(=S)N2CCN(c3cccc(C(F)(F)F)c3)CC2)nc2ccccc12 the inhibition [1] was 119% and the IC50 [2] was 21 µM.

Work on Cc1ccnc(N(C)C(=S)N2CCN(c3cccc(C(F)(F)F)c3)CC2)c1 yielded an Imax [1] of 38%.

With Cc1ccnc(NC(=S)N2CCN(c3cccc(C(F)(F)F)c3)CC2)n1 the inhibition [1] was 111% and the IC50 [2] was 37 µM.

Cc1cc(C)nc(NC(=S)N2CCC(NC(=O)c3cccc(C(F)(F)F)c3)CC2)c1 gave an inhibition [1] of 94% and an IC50 [2] of 11 µM.

With Cc1cc(C)nc(NC(=S)N2CCN(Cc3ccc(C(F)(F)F)cc3)C(CO)C2)c1 (configuration not stated) the inhibition [1] was 89% and the IC50 [2] was 5.8 µM.

Work on Cc1ccnc(C(=S)N2CCN(c3cccc(C(F)(F)F)c3)CC2)c1 yielded an Imax [1] of 9%.

Work on Cc1cc(C)nc(NC(=S)N2CCCC(NC(=O)c3cccc(C(F)(F)F)c3)C2)c1 (configuration not stated) yielded an inhibition [1] of 91% and an IC50 [2] of 10 µM.

With Cc1cc(C)nc(NC(=S)N2CCN(c3cccc(C(F)(F)F)c3)CC2)c1 the inhibition [1] was 92%, the t1/2 [5] was > 30 min and the IC50 [2] was 6.3 µM.

For Cc1cc(C)nc(NC(=S)N2CCN(c3ccc(C(F)(F)F)cc3)CC2)c1, the inhibition [1] was 98% and the IC50 [2] was 4.3 µM.

In the case of Cc1cc(C)nc(NC(=S)N2CCN(Cc3ccccc3C(F)(F)F)CC2)c1, the inhibition [1] is reported as 92% and the IC50 [2] is reported as 6.3 µM.

Cc1cc(C)nc(NC(=S)N2CCN(C(C)c3ccc(C(F)(F)F)cc3)CC2)c1 (configuration not stated) gave an inhibition [1] of 90% and an IC50 [2] of 8 µM.

Work on Cc1cc(C)nc(NC(=S)N2CCN(Cc3ccc(C(F)(F)F)cc3)[C@@H](C)C2)c1 yielded an inhibition [1] of 86% and an IC50 [2] of 9.9 µM.

For Cc1ccnc(NC(=N)N2CCN(c3cccc(C(F)(F)F)c3)CC2)c1, the Imax [1] was 2%.

COc1ccccc1N1CCN(C(=S)Nc2cc(C)cc(C)n2)CC1 showed an inhibition [1] of 109% and an IC50 [2] of 24 µM.

With Cc1cc(C)nc(NC(=S)N2CCCC(Nc3ccc(C(F)(F)F)cc3)C2)c1 (configuration not stated) the inhibition [1] was 85% and the IC50 [2] was 5.7 µM.

For Cc1cc(C)nc(NC(=S)N2CCC(NC(=O)c3ccc(C(F)(F)F)cc3)CC2)c1, the inhibition [1] was 90% and the IC50 [2] was 10 µM.
